Measurements taken from US8546380B2, “Aminodihydrothiazine derivatives” (Shionogi & Co., Ltd., priority 2005, dated 2013).
Read-outs that look alike come from different tables or passages of the source.

Experiments:
[1] = target: recombinant human BACE-1 protein (Homo sapiens (Human), UniProt P56817); assay: Measurement of Inhibition of β-Secretase Activity; type: biochemical; settings: 3 h at 30° C., pH5.0, read-out: IC50 value
How it was run: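 Recombinant human BACE-1 incubated with compound and Eu-cryptate-labelled biotinylated peptide substrate 3 h at 30° C in 50 mM sodium acetate pH 5.0, 0.008% Triton X-100. Streptavidin-XL665 in KF-containing phosphate buffer pH 7.0 then added, 1 h at 30° C, for time-resolved FRET read-out.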

[2] = recombinant human BACE-1 protein
[3] = fluorescence-quenched peptide substrate 18 nM, BACE-1 7.4 nM

recombinant human BACE-1 protein, sequence (P56817 46-501): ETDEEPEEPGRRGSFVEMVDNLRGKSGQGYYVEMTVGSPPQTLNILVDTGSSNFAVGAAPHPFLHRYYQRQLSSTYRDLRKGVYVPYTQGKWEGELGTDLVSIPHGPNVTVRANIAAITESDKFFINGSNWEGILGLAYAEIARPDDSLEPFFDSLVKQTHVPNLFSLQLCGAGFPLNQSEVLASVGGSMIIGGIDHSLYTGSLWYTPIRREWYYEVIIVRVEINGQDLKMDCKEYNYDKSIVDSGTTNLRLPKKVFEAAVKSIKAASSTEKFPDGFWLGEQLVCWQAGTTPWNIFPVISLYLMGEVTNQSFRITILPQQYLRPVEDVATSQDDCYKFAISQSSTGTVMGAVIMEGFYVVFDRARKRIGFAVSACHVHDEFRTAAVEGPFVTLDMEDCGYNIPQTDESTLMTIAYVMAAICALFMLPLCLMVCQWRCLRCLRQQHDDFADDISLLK

Structure (SMILES)	melting point	IC50 [1, 2] [µM]	IC50 [1, 3] [µM]
CC1(c2cccc(/C=C/C(=O)Nc3ccc(Cl)cn3)c2)CCSC(N)=N1.Cl.Cl (centres unmarked) [Compound 504]	209 to 219 °C	2.5	
CC(=O)Nc1cc(Cl)cnc1C(=O)Nc1cccc(C2(C)CCSC(N)=N2)c1 (centres unmarked) [Compound 511]	211 to 214 °C		< 100
Cc1ccc(C(=O)Nc2cccc(C3(C)CCSC(N)=N3)c2)nc1 (centres unmarked) [Compound 528]	173 to 174 °C		< 100
COc1ccc(C2(C)CCSC(N)=N2)cc1F (centres unmarked) [Compound 551]	139 to 141 °C		< 100
CC1(c2cc(Br)cc(NC(=O)c3nc4ccccc4s3)c2)CCSC(N)=N1.Cl (centres unmarked) [Compound 570]	186 to 187 °C	0.149	
CC1(c2cccc(/C=N/OCc3cccnc3)c2)CCSC(N)=N1 (centres unmarked) [Compound 584]	152 to 153 °C		< 100
COc1ccc(CNc2cccc(C3(C)CCSC(N)=N3)c2)cc1.Cl.Cl (centres unmarked) [Compound 600]	178 to 180 °C		< 100
CC1(c2cccc(NC(=O)c3ncc(C(F)(F)F)cc3F)c2)CCSC(N)=N1 (centres unmarked) [Compound 643]	155 to 157 °C		< 100
CC1(c2cccc(CCC(=O)Nc3ccc(Cl)cn3)c2)CCSC(N)=N1.Cl.Cl (centres unmarked) [Compound 657]	199 to 203 °C		< 100
COC(=O)c1cc(C(=O)Nc2cccc(C3(C)CCSC(N)=N3)c2)nn1C (centres unmarked) [Compound 687]	164 to 167 °C		< 100
CCOC(=O)CCc1cccc(C2(C)CCSC(N)=N2)c1.Cl (centres unmarked) [Compound 720]	133 to 138 °C		< 100
Cc1ccccc1Oc1ccc(C2(C)CCSC(N)=N2)cc1 (centres unmarked) [Compound 729]	167 to 169 °C		< 100
CO/N=C/c1cccc(C2(C)CCSC(N)=N2)c1 (centres unmarked) [Compound 804]	135 to 136 °C		< 100
CC1(c2cccc(NC(=O)c3ccc(Cl)cn3)c2Cl)CCSC(N)=N1 (centres unmarked) [Compound 813]	204 to 205 °C		< 100
CC1(c2ccccc2)CC(c2ccccc2)SC(N)=N1 (centres unmarked) [Compound 835]	139 to 140 °C		< 100
CC1(c2cc(NC(=O)c3ccc(C(F)(F)F)cn3)cc(C(F)(F)F)c2)CCSC(N)=N1 (centres unmarked) [Compound 897]	212 to 214 °C	0.816	
CC1(c2cc(NC(=O)c3ccc(Cl)cn3)cc(C(F)(F)F)c2)CCSC(N)=N1 (centres unmarked) [Compound 964]	185 to 187 °C	0.264	
CC1(c2cccc(OCCCc3ccccc3)c2)CCSC(N)=N1 (centres unmarked) [Compound 1010]	90 to 91 °C	2.8	
CC1(c2cc(Br)cc(NC(=O)c3cc4ccccc4s3)c2)CCSC(N)=N1.Cl (centres unmarked) [Compound 1014]	206 to 210 °C	0.165	
CC1(c2cccc(COc3ccc(Cl)cc3)c2)CCSC(N)=N1 (centres unmarked) [Compound 1028]	105 to 106 °C		< 100
COc1cc(NC(=O)c2ccc(Cl)cn2)cc(C2(C)CCSC(N)=N2)c1.Cl (centres unmarked) [Compound 1035]	247 to 251 °C (dec.)	0.174	
CC1(c2ccc(Oc3ccccc3)cc2)CCSC(N)=N1 (centres unmarked) [Compound 1055]	169 to 170 °C		< 100
CC1(c2cccc(/C=C/C(=O)Nc3ccccc3)c2)CCSC(N)=N1 (centres unmarked) [Compound 1109]	134 to 140 °C		< 100
COc1ccc(NC(=O)/C=C(\Cl)c2cccc(C3(C)CCSC(N)=N3)c2)cc1 (centres unmarked) [Compound 1114]	121 to 124 °C		< 100
CC1(c2ccc(F)c(C(=O)Nc3ccc(Cl)cn3)c2)CCSC(N)=N1 (centres unmarked) [Compound 1125]	195 to 198 °C		< 100
CC1(c2cccc(NC(=O)c3ccc(N4CCOCC4)cn3)c2)CCSC(N)=N1 (centres unmarked) [Compound 1131]	189 to 191 °C		< 100
CC1(c2cc(Br)cc(NC(=O)c3ccno3)c2)CCSC(N)=N1.Cl (centres unmarked) [Compound 1132]	175 to 180 °C (dec.)	2.56	
CC(C)Oc1cc(NC(=O)c2ccc(Cl)cn2)cc(C2(C)CCSC(N)=N2)c1.Cl (centres unmarked) [Compound 1135]	255 to 260 °C (dec.)	2.3	
CC1(c2cccc(/C(Cl)=C/C(=O)Nc3ccc(Cl)cn3)c2)CCSC(N)=N1 (centres unmarked) [Compound 1142]	182 to 186 °C (dec.)		< 100
CC1(c2cccc(/C=N/OCc3ccccn3)c2)CCSC(N)=N1 (centres unmarked) [Compound 1193]	182 to 183 °C		< 100

The next lines start with the values.

melting point	IC50 [1, 2] [µM]	IC50 [1, 3] [µM]	Structure (SMILES)
204 to 206 °C		< 100	CC1(c2cccc(NC(=O)c3ncc(Cl)cn3)c2)CCSC(N)=N1 (centres unmarked) [Compound 515]
100 to 101 °C		< 100	CC1(c2ccc(F)cc2)CCSC(N)=N1 (centres unmarked) [Compound 549]
155 to 156 °C		< 100	CC1(c2cc(N)cc(Br)c2)CCSC(N)=N1.Cl.Cl (centres unmarked) [Compound 588]
200 to 202 °C		< 100	CC1(c2cccc(/C=N/O)c2)CCSC(N)=N1 (centres unmarked) [Compound 611]
107 to 109 °C	1.29		CC1(c2cccc(NC(=O)c3ccc(Cl)cc3Cl)c2)CCSC(N)=N1 (centres unmarked) [Compound 625]
179 to 182 °C		< 100	CC1(c2cccc(NCc3ccncc3)c2)CCSC(N)=N1 (centres unmarked) [Compound 728]
91 to 94 °C	0.278		Cc1cc(C(=O)Nc2cc(Br)cc(C3(C)CCSC(N)=N3)c2)c(C)o1 (centres unmarked) [Compound 731]
166 to 168 °C		< 100	CC1(c2ccc(Oc3ccc(Br)cc3)cc2)CCSC(N)=N1 (centres unmarked) [Compound 735]
250 °C (dec.)	0.505		Cl.NC1=NC(c2cccc(NC(=O)c3ccc(Cl)cn3)c2)CCS1 (centres unmarked) [Compound 740]
110 to 111 °C		< 100	Cc1ccccc1C1(C)CCSC(N)=N1 (centres unmarked) [Compound 756]
156 to 157 °C		< 100	Cc1ccc2cc(C3(C)CCSC(N)=N3)ccc2c1 (centres unmarked) [Compound 758]
269 °C (dec.)	0.061		CC1(c2cccc(NC(=O)c3ccc(Cl)cn3)c2)CCSC(N)=N1.Cl (centres unmarked) [Compound 793]
212 to 213 °C		< 100	COc1ccc2cc(C3(C)CCSC(N)=N3)ccc2c1 (centres unmarked) [Compound 871]
205 to 207 °C		< 100	CC1(c2cccc(SC(=O)c3ncc(Br)cn3)c2)CCSC(N)=N1 (centres unmarked) [Compound 900]
161 to 165 °C		< 100	CC1(c2cccc(NC(=O)c3ccc4ccccc4n3)c2)CCSC(N)=N1 (centres unmarked) [Compound 935]
169 to 170 °C		< 100	COc1ccc(CCCOc2cccc(C3(C)CCSC(N)=N3)c2)cc1.Cl (centres unmarked) [Compound 936]
126 to 129 °C		< 100	CC1(c2cccc(COc3ccccc3)c2)CCSC(N)=N1 (centres unmarked) [Compound 990]
191 to 193 °C		< 100	CC(C)c1ccc(C(=O)Nc2cccc(C3(C)CCSC(N)=N3)c2)nc1 (centres unmarked) [Compound 1005]
136 to 137 °C		< 100	CC1(c2ccc(Cl)cc2)CCSC(N)=N1 (centres unmarked) [Compound 1062]
194 to 196 °C		< 100	CC1(c2ccc(F)c(OCCCc3ccccc3)c2)CCSC(N)=N1.Cl (centres unmarked) [Compound 1069]
146 to 149 °C		< 100	CC1(c2ccc3c(c2)CCO3)CCSC(N)=N1 (centres unmarked) [Compound 1084]
169 to 172 °C		< 100	CC1(c2ccc(C(=O)NCc3ccccc3)s2)CCSC(N)=N1 (centres unmarked) [Compound 1124]
149 to 150 °C		< 100	CC1(c2cccc(CNC(=O)c3ccc(Cl)cc3)c2)CCSC(N)=N1.Cl (centres unmarked) [Compound 1184]
250 to 255 °C (dec.)	0.912		COCc1cc(NC(=O)c2ccc(Br)cc2)cc(C2(C)CCSC(N)=N2)c1.Cl (centres unmarked) [Compound 1197]
274 to 283 °C	0.032		CC1(c2cc(NC(=O)c3ccc(Cl)cn3)ccc2Cl)CCSC(N)=N1.Cl (centres unmarked) [Compound 1199]
